Laboratory results as given in ChEMBL document CHEMBL2412988, “Synthesis, pH-dependent, and plasma stability of meropenem prodrugs for potential use against drug-resistant tuberculosis” (Bioorg Med Chem, 2013).

System: Mycobacterium tuberculosis
Test: Antimycobacterial activity against extensively drug-resistant Mycobacterium tuberculosis in presence of clavulanate
Assay type: functional

C[C@@H](O)[C@H]1C(=O)N2C(C(=O)O)=C(S[C@@H]3CN[C@H](C(=O)N(C)C)C3)[C@H](C)[C@H]12 [MEROPENEM]
MIC: 0.03 µg/mL
